Data published in US4758518A, “D-2-haloalkanoic acid halidohydrolase” (Imperial Chemical Industries PLC, priority 1984, dated 1988).

Molecular target: T1, D-2-HAA halidohydrolase from Pseudomonas putida NCIB 12018 (0.15 M fraction) (Pseudomonas putida, UniProt Q52086)
T1 construct: Activity towards D-2-CPA was found exclusively in the 0.15 M fraction; endogenous in cells; host or cells: Pseudomonas putida NCIB 12018 (cell-free extract from French pressure cell, fractionated on DEAE-Sephacel, 0.15 M KCl fraction)
Experiment: Inhibition of dehalogenation activity of the isolated D-2-HAA halidohydrolase (0.15 M DEAE-Sephacel fraction)
Assay type: biochemical
Conditions: at up to 1 M concentration of the substance; substrate (DL-2-CPA) or reaction product (lactate)
Experimental: Samples of the cell-free extracts were submitted in duplicate to polyacrylamide gel electrophoresis (Hardman et al, Journal of General Microbiology, 1981, Volume 123, pages 117-128). One of each pair of gels, after electrophoresis was incubated in a buffer solution containing 50 mM D-2-CPA and the other of each pair was incubated in a buffer solution containing 50 mM L-2-CPA as described in the aforesaid Hardman et al reference.
A portion (25 ml) of the cell free extract from Pseudomonas putida NCIB 12018 was loaded onto DEAE-Sephacel column (45 mm diameter, 60 cm high) pre-equilibrated with 25 mM Tris/Sulphate buffer at pH 7.5. The column was eluted with portions (200 ml) of this buffer neat and then containing successively 0.15 M, 0.2 M and 0.5 M potassium chloride at a flow rate of 100 ml/hour.
Each of the four fractions was assayed for halidohydrolase activity as described in Step 2 using L-2-CPA and D-2-CPA as substrates.
The halidohydrolase in the 0.15 M fraction has a pH optimum for activity on D-2-CPA at 8.8-9.0. It has good activity in organic (Tris/Sulphate) and inorganic (bicarbonate/carbonate) buffers, and has activity in unbuffered media, e.g. distilled water, with the pH controlled at 8.8-9.0.
The enzymatic activity is not inhibited by up to 1 M DL-2-CPA or by the products of the reaction, i.e. chloride ion and lactate, at up to 1 M concentration.

T1 sequence (Q52086 whole entry): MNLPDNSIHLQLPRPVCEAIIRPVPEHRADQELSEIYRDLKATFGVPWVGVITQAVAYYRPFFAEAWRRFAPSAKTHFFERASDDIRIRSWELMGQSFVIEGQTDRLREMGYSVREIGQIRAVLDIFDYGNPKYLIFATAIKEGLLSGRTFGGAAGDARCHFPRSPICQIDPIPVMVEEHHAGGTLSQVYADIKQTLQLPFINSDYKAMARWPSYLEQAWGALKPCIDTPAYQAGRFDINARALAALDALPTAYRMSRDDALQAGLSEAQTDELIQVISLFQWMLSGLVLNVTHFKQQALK

Row | SMILES | inhibition of the enzymatic activity
1 | CC(Cl)C(=O)O (racemic) [DL-2-CPA, 2-chloropropionic acid] | not inhibited
2 | CC(O)C(=O)O (centres unmarked) [lactate] | not inhibited
